Reference: patent publication US8133872B2 (Industrial Cooperation Foundation, Chonbuk National …, priority 2008, dated 2012)
Entries after “also recorded” stand apart in the source; their conditions may differ.

What was measured:
[1] = test system: pancreatic islet cells of type-2 diabetic mice; test: Immunohistochemical (anti-insulin antibody) and hematoxylin-eosin staining of pancreatic islets; type: in vivo; conditions: 1 mg/kg/day for 3 weeks, FIG. 4
Protocol: After 120 minutes, the mice were sacrificed by cervical dislocation, and then immediately the peritoneum was incised. Then, the intestinal and pancreatic tissues were collected and fixed in 4% paraformaldehyde solution (solvent-phosphate buffer; pH 7.4; Sigma, USA) for 12 hours or more. Then, the pancreatic tissue was separated from the intestinal or adipose tissue, and the separated tissue was washed three times or more with a fresh fixture and then processed into paraffin-embedded tissue according to a conventional method.
Tissue sections were cut from the paraffin-embedded tissue at 5-μm intervals using a microtome (Shandon, Germany) and applied to slides coated with poly-L-lysine (Sigma, USA) before use in immunohistochemical staining. In order to remove paraffin from the pancreatic tissue-coated slides, sections were deparaffinized with xylene (Junsei, Japan) for 5 minutes to remove paraffin. Then, the sections were hydrated in 100-70% alcohol series and allowed to stand in phosphate buffer (pH 7.4) for 5 minutes. Then, the sections were treated with 3% hydrogen peroxide to remove intrinsic peroxidase, and then allowed to react with anti-insulin antibody (Dako, USA) at 4° C. for 12 hours. Then, the section samples were subjected to immunohistochemical staining with anti-insulin antibody using an immunohistochemical staining kit (A.B.I., Jeonju-si, Korea). […]

[2] = test system: type-2 diabetic mice (C57BL/KsJ-db/db Jcl); test: Serum insulin after glucose load in type-2 diabetic mice given NAADP (insulin RIA kit); type: in vivo
Protocol: The same test method as described in Example 2 was used, and 50 μl of blood was collected from the tail vein just before glucose load. At 30 minutes (showing the highest blood glucose level after glucose load) and at 120 minutes (showing the lowest blood glucose level after glucose load), the same amount of blood was collected and coagulated, and serum was separated from the blood. The separated serum was measured for insulin concentration using an insulin RIA kit (Linco Research Inc., USA).

[3] = test system: pancreatic β-islet cells; test: Insulin secretion from isolated mouse pancreatic islets treated with NAADP (radioimmunoassay); type: cell-based, mice
Protocol: The isolation of pancreatic islets from six, 8-week-old ICR mice (Orientbio Inc., Seongnam-si, Korea) weighing 25-30 g was carried out according to the method of Lacy and Kotianovsky (Diabetes, 16, 35-39, 1967) in the following manner. Mice were sacrificed by cervical dislocation, and the peritoneum was incised. Hank's balanced salt solution (HBSS, Gibco, USA) containing 1 mg/mL of collagenase (Sigma, USA) was infused into the bile duct to inflate the pancreas, and then the pancreas was isolated. The isolated pancreas was incubated at 37° C. for 20 minutes, and then homogeneously agitated. The agitated solution was washed with HBSS to remove acinar cells, and then pancreatic islets of a given size were separated from the solution under stereoscopic binocular microscope. […] The concentration of insulin in the supernatant from which the pancreatic β-islet cells have been removed was measured. The measurement of the insulin concentration was carried out by radioimmunoassay using an insulin measurement kit (Diagnostic Products Corp., USA).
Insulin secretion from the mouse pancreatic β-islet cells after treatment by 0 nM and 50 nM at extracellular glucose concentrations maintained at 2.8 mM and 12 mM was measured, and the measurement results are shown in FIG. 1.

[4] = test system: type-2 diabetic mice (C57BL/KsJ-db/db Jcl); test: Glucose tolerance test (blood glucose after glucose load) in type-2 diabetic mice given NAADP by osmotic mini-pump; type: in vivo
Excerpt: Seven-week-old type-2 diabetic mice were divided into a control group (five animals) and test groups and tested using an osmotic mini-pump in the following manner. […] Then, the NAADP solution was infused into the abdominal cavity of the mice according to the method described in the supplier's manual.

[5] = 1 mg/kg/day NAADP by osmotic mini-pump, sera at 0, 30 and 120 min
[6] = 1 mg/kg/day NAADP by osmotic mini-pump, fasting from 13 hours before testing

nicotinic acid adenine dinucleotide phosphate [NAADP]
hematoxylin-eosin staining: capsules covering the pancreatic islets and β-islet cells [1]: clustered together
positive response of pancreatic β-islet cells to anti-insulin antibody ([1]; compared to control group): clearly increased
blood insulin level after the peak, up to 120 minutes after glucose load [2, 5]: maintained at a constant level
time of blood insulin peak after glucose load [2, 5]: 30 min
blood insulin concentration ([2]; 1 mg/kg/day, at 3 weeks (10-week-old), after glucose load, FIG. 3): clear increase in blood insulin concentration
insulin secretion from pancreatic β-islet cells ([3]; 50 nM NAADP, glucose 12 mM, 37° C., FIG. 1): great increase in insulin secretion
NAADP concentration essential for stimulating insulin secretion from pancreatic β-islet cells ([3]; in the presence of glucose): 5 to 500 nM
time at which blood glucose returned to the fasting blood glucose level after glucose load [4, 6]: 120 min
time of blood glucose peak after glucose load [4, 6]: 30 min
blood glucose levels ([4]; 1 mg/kg/day intraperitoneally by osmotic mini-pump, 3 weeks, type-2 diabetic mice, FIG. 2): clear decrease in blood glucose levels; also recorded: clear effect of lowering the blood glucose levels
